In patent publication US4755526A, “Method of inhibiting aromatase” (Eli Lilly and Company, priority 1984, dated 1988):
Structures can show the parent of a compound that is named as a salt.

Tested on: estrogen synthesis
Test: Estrogen synthesis inhibition in rats (uterine weight and ovarian steroid concentrations)
Type: in vivo, female Wistar rats
Conditions: 30 ppm in feed (approximately 3 mg/kg/day), ovaries
Method: Test compounds were administered for seven days either daily by gavage in corn oil or as a component of the diet. Control animals received either corn oil or diet without the test compound. Beginning on the fourth day of the test, all animals treated with the test compound and one half of the control animals were given a subcutaneous injection of 1.0 mg of testosterone propionate in corn oil. The remaining control animals received only an equivalent volume of corn oil.
After two hours, the animals were killed by decapitation. Uteri were isolated, trimmed of extraneous connective tissue, and weighed. […] In the control animals treated with testosterone propionate, estrogens produced by aromatization stimulated the uterus resulting in an increase in weight.
The ovarian steroids were extracted with 1.5 ml of 9:1 (v/v) toluene/ethanol to which had been added 25 to 100 mcg each of unlabelled estradiol, estriol, and estrone, and approximately 1000 dpm of [^14 C]-estradiol. The samples were vortexed, centrifuged at 500×g for 10 minutes, and the organic phase was transferred to a conical vial. Two additional extractions were performed on the residue in the same way. The pooled organic extracts were evaporated for subsequent thin-layer chromatography.
Ovarian proteins were precipitated by the addition of 5.0 ml of ethanol to the remaining aqueous phase. After an overnight incubation at 4° C., the samples were centrifuged at 1500×g for 10 minutes. The supernatant was discarded, and the pellet was dissolved in 0.3N potassium hydroxide.
The organic residue from each above extraction was redissolved in 9:1 (v/v) dichloromethane/methanol. The solution of each sample was applied to separate silica gel thin layer chromatography plates which contained a fluorescent indicator. The plates were developed in the first dimension with 160:38:1.5:0.5 (v/v/v/v) dichloromethane/ethyl acetate/methanol/acetic acid to within 3 cm of the top of the plate. After air-drying, the plate was developed in the second dimension with 180:19:1 (v/v/v) dichloromethane/methanol/ammonium hydroxide. The plate was air-dried and viewed under 254 nm UV light.
The visible spots were marked and the plates were sprayed with primulin (0.001% in 4:1 v/v acetone/water) according to the method of Wright, J. Chromatography, 59, 220 (1971) which allowed for the identification of additional steroids under 365 nm UV light. The spots were scraped from the plate using a glass wool plugged Pasteur pipet attached to a vacuum line. The steroids were eluted directly into scintillation vials by the addition of 0.2 ml of dichloromethane followed by two washes each of 2.0 ml of methanol. The organic solvent was evaporated and 10.0 ml of scintillation fluid (Beckman Ready Solv-NA) was added to the vials. Samples were analyzed by liquid scintillation spectrometry. Corrections were made based on the recoveries of the [^14 C]-steroid. Steroid concentrations are expressed as femtomoles per milligram protein.

Structure (SMILES) | Mean Steroid Concentration, estradiol | Mean Steroid Concentration, estriol
Clc1ccc(C(c2ccc(Cl)cc2)n2cnnc2)cc1 [4-[bis(4-chlorophenyl)methyl]-4H--1,2,4-triazole] | 0.46 femtomoles per milligram of protein | 0.60 femtomoles per milligram of protein

Same assay, conditions: 30 ppm in feed (approximately 3 mg/kg/day), testosterone propionate-treated rats

Structure (SMILES) | Mean Uterine Weight
COc1ccccc1C(c1ccccc1)n1ccnc1 (centres unmarked) [1-[(2-methoxyphenyl)phenylmethyl]-1H--imidazole nitrate] | 176.0 mg
Clc1ccc(C(c2ccc(Cl)cc2)n2cnnc2)cc1 [4-[bis(4-chlorophenyl)methyl]-4H--1,2,4-triazole] | 113.3 mg
Clc1ccc(C(c2ccc(Cl)cc2)(c2cncnc2)n2ccnc2)cc1 [5-[bis(4-chlorophenyl)-1H--imidazol-1-ylmethyl]pyrimidine] | 107.5 mg

Same assay, conditions: 300 ppm in feed (approximately 30 mg/kg/day), ovaries

Structure (SMILES) | Mean Steroid Concentration, estradiol | Mean Steroid Concentration, estriol | Mean Steroid Concentration, estrone
Clc1ccc(C(c2ccc(Cl)cc2)n2cnnc2)cc1 [4-[bis(4-chlorophenyl)methyl]-4H--1,2,4-triazole] | 0.48 femtomoles per milligram of protein | 0.64 femtomoles per milligram of protein | 0.10 femtomoles per milligram of protein

Same assay, conditions: 300 ppm in feed (approximately 30 mg/kg/day), testosterone propionate-treated rats

Structure (SMILES) | Mean Uterine Weight
COc1ccccc1C(c1ccccc1)n1ccnc1 (centres unmarked) [1-[(2-methoxyphenyl)phenylmethyl]-1H--imidazole nitrate] | 212.6 mg
Clc1ccc(C(c2ccc(Cl)cc2)n2cnnc2)cc1 [4-[bis(4-chlorophenyl)methyl]-4H--1,2,4-triazole] | 97.3 mg
Clc1ccc(C(c2ccc(Cl)cc2)(c2cncnc2)n2ccnc2)cc1 [5-[bis(4-chlorophenyl)-1H--imidazol-1-ylmethyl]pyrimidine] | 87.6 mg

Biological target: T1, aromatase (Rattus norvegicus, UniProt P22443)
T1 construct: ovarian microsomes are obtained from rats treated with pregnant mares serum gonadotropin; from tissue; host or cells: ovarian microsomes of rats treated with pregnant mares serum gonadotropin
T1 sequence (P22443 1-508): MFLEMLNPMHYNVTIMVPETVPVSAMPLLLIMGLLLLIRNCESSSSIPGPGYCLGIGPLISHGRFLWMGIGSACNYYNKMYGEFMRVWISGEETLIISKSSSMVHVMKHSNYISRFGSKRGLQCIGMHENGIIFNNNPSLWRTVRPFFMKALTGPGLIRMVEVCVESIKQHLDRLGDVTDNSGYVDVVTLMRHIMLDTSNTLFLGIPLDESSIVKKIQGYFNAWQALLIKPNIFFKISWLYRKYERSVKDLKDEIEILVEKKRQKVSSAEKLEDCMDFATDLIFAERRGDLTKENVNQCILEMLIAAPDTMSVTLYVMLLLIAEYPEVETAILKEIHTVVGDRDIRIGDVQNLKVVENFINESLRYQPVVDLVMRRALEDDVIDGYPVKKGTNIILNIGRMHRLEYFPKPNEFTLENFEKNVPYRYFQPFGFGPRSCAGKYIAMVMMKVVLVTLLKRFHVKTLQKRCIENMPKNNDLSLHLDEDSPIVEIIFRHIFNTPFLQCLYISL
Test: Aromatase inhibition in the rat ovarian microsome assay
Type: biochemical
Conditions: EC50: concentration required to achieve 50% inhibition of aromatase activity, substrate (androstenedione) concentration 0.1 μM
Method: In this test system, ovarian microsomes are obtained from rats treated with pregnant mares serum gonadotropin. Test compounds are added to reaction vials containing 0.1 μM 4-androstene-3,17-dione, 100,000 dpm 1,2[^3 H]-androstenedione, the microsomes and a NADPH generating system. The concentrations of the inhibitors tested ranged between 0.005 and 10 μM.

EC50 | Structure (SMILES)
96 nM | c1ccc(C(c2ccccc2)(c2cccc3ccccc23)n2ccnc2)cc1 [1-(1-naphthalenyldiphenylmethyl)-1H--imidazole]
330 nM | c1ccc2c(Cn3ccnc3)cccc2c1 [1-(1-naphthalenylmethyl)-1H--imidazole hydrochloride]
110 nM | c1ccc(C2(n3ccnc3)CCCCCC2)cc1 [1-(1-phenylcycloheptyl)-1H--imidazole]
1050 nM | CC(c1ccccc1)n1ccnc1 (centres unmarked) [1-(1-phenylethyl)-1H--imidazole hydrochloride]
3500 nM | Clc1ccccc1Cn1ccnc1 [1-(2-chlorobenzyl)imidazole hydrochloride]
3600 nM | Clc1cccc(Cn2ccnc2)c1 [1-(3-chlorobenzyl)imidazole]
> 5000 nM | Clc1ccc(Cn2cncn2)cc1 [1-(4-chlorobenzyl)-1H--1,2,4-triazole]
140 nM | Clc1ccc(Cn2ccnc2)cc1 [1-(4-chlorobenzyl)-1H--imidazole]
450 nM | Clc1ccc(Cn2ccnc2)cc1 [1-(4-chlorobenzyl)imidazole hydrochloride]
< 50 nM | C#CC(c1ccc(Cl)cc1)(c1ccc(Cl)cc1)n1ccnc1 [1-[1,1-bis(4-chlorophenyl)-2-propynyl]-1H--imidazole]
125 nM | CCCC(c1ccccc1OCc1ccc(Cl)cc1Cl)n1ccnc1 (centres unmarked) [1-[1-(2-[2,4-dichlorobenzyloxy]phenyl)butyl]-1H--imidazole nitrate]
2500 nM | CC(c1ccccc1Cl)n1ccnc1 (centres unmarked) [1-[1-(2-chlorophenyl)ethyl]-1H--imidazole hydrochloride]
< 50 nM | CCOc1ccccc1C(C)n1ccnc1 (centres unmarked) [1-[1-(2-ethoxyphenyl)ethyl]-1H--imidazole nitrate]
140 nM | CCOc1ccccc1C(CC)n1ccnc1 (centres unmarked) [1-[1-(2-ethoxyphenyl)propyl]-1H--imidazole nitrate]
410 nM | CC(C)C(c1cccc2ccccc12)n1ccnc1 (centres unmarked) [1-[2-methyl-1-(1-naphthalenyl)propyl]-1H--imidazole nitrate]
1650 nM | c1ccc(-c2ccc(Cn3ccnc3)cc2)cc1 [1-[(1,1'-biphenyl)-4-ylmethyl]-1H--imidazole hydrochloride]
730 nM | Clc1ccc(Cn2ccnc2)c(Cl)c1 [1-[(2,4-dichlorophenyl)methyl]-1H--imidazole hydrochloride]
160 nM | Clc1ccc(Cl)c(Cn2ccnc2)c1 [1-[(2,5-dichlorophenyl)methyl]-1H--imidazole hydrochloride]
> 5000 nM | Clc1cccc(Cl)c1Cn1ccnc1 [1-[(2,6-dichlorophenyl)methyl]-1H--imidazole hydrochloride]
125 nM | Clc1cccc(Cl)c1COc1ccccc1Cn1ccnc1 [1-[(2-[2,6-dichlorobenzyloxy]phenyl)methyl]-1H--imidazole nitrate]
86 nM | c1ccc(CCOc2ccccc2Cn2ccnc2)cc1 [1-[(2-[2-phenylethoxy]phenyl)methyl]-1H--imidazole nitrate]
1560 nM | CCOc1ccccc1Cn1ccnc1 [1-[(2-ethoxyphenyl)methyl]-1H--imidazole hydrochloride]
100 nM | CCOc1ccccc1C(c1ccccc1)n1ccnc1 (centres unmarked) [1-[(2-ethoxyphenyl)phenylmethyl]-1H--imidazole nitrate]

EC50 | Structure (SMILES)
2650 nM | Fc1ccccc1Cn1ccnc1 [1-[(2-fluorophenyl)methyl]-1H--imidazole nitrate]
2100 nM | COc1ccccc1Cn1ccnc1 [1-[(2-methoxyphenyl)methyl]-1H--imidazole hydrochloride]
1500 nM | Cc1ccccc1Cn1ccnc1 [1-[(2-methylphenyl)methyl]-1H--imidazole hydrochloride]
3100 nM | O=[N+]([O-])c1ccccc1Cn1ccnc1 [1-[(2-nitrophenyl)methyl]-1H--imidazole hydrochloride]
1750 nM | FC(F)(F)c1ccccc1Cn1ccnc1 [1-[(2-trifluoromethylphenyl)methyl]-1H--imidazole hydrochloride]
110 nM | Clc1cc(Cl)cc(Cn2ccnc2)c1 [1-[(3,5-dichlorophenyl)methyl]-1H--imidazole hydrochloride]
1250 nM | COc1cccc(Cn2ccnc2)c1 [1-[(3-methoxyphenyl)methyl]-1H--imidazole ethanedioate]
920 nM | Cc1cccc(Cn2ccnc2)c1 [1-[(3-methylphenyl)methyl]-1H--imidazole ethanedioate]
1130 nM | O=[N+]([O-])c1cccc(Cn2ccnc2)c1 [1-[(3-nitrophenyl)methyl]-1H--imidazole hydrochloride]
390 nM | FC(F)(F)c1cccc(Cn2ccnc2)c1 [1-[(3-trifluoromethylphenyl)methyl]-1H--imidazole hydrochloride]
< 50 nM | Fc1ccc(C(c2ccc(Br)cc2)n2cncn2)cc1 (centres unmarked) [1-[(4-bromophenyl)(4-fluorophenyl)methyl]-1H--1,2,4-triazole]
< 50 nM | Fc1ccc(C(c2ccc(Cl)cc2)n2cncn2)cc1 (centres unmarked) [1-[(4-chlorophenyl)(4-fluorophenyl)methyl]-1H--1,2,4-triazole]
69 nM | Clc1ccc(C(c2ccccc2)(c2ccccc2)n2ccnc2)cc1 [1-[(4-chlorophenyl)diphenylmethyl)-1H--imidazole]
95 nM | Clc1ccc(C(c2ccccc2)(c2ccccc2)n2cncn2)cc1 [1-[(4-chlorophenyl)diphenylmethyl]-1H--1,2,4-triazole]
80 nM | Cc1nccn1C(c1ccccc1)(c1ccccc1)c1ccc(Cl)cc1 [1-[(4-chlorophenyl)diphenylmethyl]-2-methyl-1H--imidazole]
630 nM | Fc1ccc(Cn2ccnc2)cc1 [1-[(4-fluorophenyl)methyl]-1H--imidazole nitrate]
2500 nM | COc1ccc(Cn2ccnc2)cc1 [1-[(4-methoxyphenyl)methyl]-1H--imidazole hydrochloride]
840 nM | Cc1ccc(Cn2ccnc2)cc1 [1-[(4-methylphenyl)methyl]-1H--imidazole hydrochloride]
190 nM | FC(F)(F)c1ccc(Cn2ccnc2)cc1 [1-[(4-trifluoromethylphenyl)methyl]-1H--imidazole ethanedioate]
110 nM | Clc1ccc(C(c2ccccc2)(c2ccc(Cl)cc2)n2ccnc2)cc1 [1-[bis(4-chlorophenyl)phenylmethyl]-1H--imidazole]
94 nM | Cc1nccn1C(c1ccccc1)(c1ccc(Cl)cc1)c1ccc(Cl)cc1 [1-[bis(4-chlorophenyl)phenylmethyl]-2-methyl-1H--imidazole]
80 nM | Cc1nccn1C(c1ccccc1)(c1ccc(F)cc1)c1ccc(F)cc1 [1-[bis(4-fluorophenyl)phenylmethyl]-2-methyl-1H--imidazole]
240 nM | COc1ccc(C(c2ccccc2)(c2ccc(OC)cc2)n2cncn2)cc1 [1-[bis(4-methoxyphenyl)phenylmethyl]-1H--1,2,4-triazole]

Structure (SMILES) | EC50
c1ccc(C2(n3ccnc3)CCCCC2)cc1 [1-(1-phenylcyclohexyl)-1H--imidazole] | 93 nM
C=C(c1ccccc1OCc1cccc(Cl)c1)n1ccnc1 [1-[1-(2-[(3-chlorophenyl)methoxy]phenyl)ethenyl]-1H--imidazole hydrochloride] | 165 nM
Clc1ccc(Cn2ccnc2)cc1Cl [1-[(3,4-dichlorophenyl)methyl]-1H--imidazole hydrochloride] | 320 nM
Clc1ccc(C(c2ccccc2)n2cncn2)cc1 (centres unmarked) [1-[(4-chlorophenyl)phenylmethyl]-1H--1,2,4-triazole] | 150 nM
Clc1ccccc1C(c1ccccc1Cl)n1cncn1 [1-[bis(2-chlorophenyl)methyl]-1H--1,2,4-triazole] | > 5000 nM
Clc1ccc(C(c2ccccc2)(c2ccc(Cl)cc2)n2cncn2)cc1 [1-[bis(4-chlorophenyl)phenylmethyl]-1H--1,2,4-triazole] | 110 nM
Fc1ccc(C(c2ccc(F)cc2)n2cncn2)cc1 [1-[bis(4-fluorophenyl)methyl]-1H--1,2,4-triazole] | 94 nM
Fc1ccc(C(c2ccccc2)(c2ccc(F)cc2)n2cncn2)cc1 [1-[bis(4-fluorophenyl)phenylmethyl]-1H--1,2,4-triazole] | 80 nM
